# Reference: patent publication EP2386565A2, “Compounds and methods to inhibit or augment an inflammatory response” (Cambridge Enterprise Ltd., priority 1999, dated 2000)
# Positions of bridges follow the written chain, without caps; N, C: chain ends. Non-standard residues stand in square brackets, D forms with d. Residues, ends and D or L forms follow the SMILES beside them.
# Columns and labels:
# [1] = test system: MCP-1 binding to heparin-coated agarose beads; test: Competition with 125I-MCP-1 for heparin-coated agarose beads; settings: 10^-11 to 10^-4 M
# From the text: Chemokines bind to glycosaminoglycans on the cell surface, which may facilitate chemokine receptor binding and subsequent signaling. […] This was followed by a monophasic displacement curve at concentrations of approximately 10^-7 to 10^-5 M MCP-1.
# [2] = 8.8 mg i.v. bolus
# [3] = test system: MCP-1- and LPS-induced dermal inflammation; test: Dermal inflammation model (intradermal MCP-1 / LPS); assay type: in vivo, rat; settings: for MCP-1 induced recruitment of monocyte/macrophages in skin (in words): systemic treatment before intradermal MCP-1
# Experimental: To assess the efficacy of an agent of the invention in the prevention of lipopolysaccharide (LPS)- and MCP-1-induced dermal inflammation in the rat, three different doses of CRD-Leu4Ile11Cys13peptide 3(3-12)[MCP-1] were administered. An inflammatory response was elicited by intradermal injection (ventral abdomen) of either 500 ng MCP-1 or 100 ng MCP-1 along with endotoxin-free phosphate-buffered saline vehicle (as a negative control) and bacterial lipopolysaccharide (LPS; as a positive control). Each substance was injected at a different site. The results obtained from animals were compared to CRD-Leu4Ile11Cys13 peptide 3(3-12)[MCP-1] treated, and PBS (diluent control) treated, animals. Thirty minutes prior to intradermal agonist administration, the animals received an intravenous loading dose (3, 30 or 300 mg) and a subcutaneous depot dose (0.1, 1 or 10 mg) (on dorsum) of the pan-chemokine inhibitor CRD-Leu4Ile11Cys13peptide 3(3-12)[MCP-1] (see, for example, Figure 12). Animals were sacrificed at 20-24 hours post injection. Serum and urine were collected. The intradermal sites of agonist injection were collected, bisected and the extent of the inflammatory response was assessed by histopathology and quantitative immunofluorescence (fixed and frozen) (for example, following MCP-1 injection, the number of monocyte/macrophages in the skin was determined using the anti-CD14 (MCA342 from Serotec; clone ED2) at 3 µg/ml overnight at 4°C. The second antibody was rat anti-mouse FITC (415-096-100 from Jackson ImmunoResearch) at 28 µg/ml for 6 hours at room temperature). In addition, toxicity of CRD-Leu4Ile11Cys13peptide 3(3-12)[MCP-1] was assessed by collection of the following tissue samples in 10% neutral buffered formalin for histologic analysis: lung, liver, kidney, spleen, thymus, heart, and antagonist (test agent) injection site.
# Although MCP-1 is fairly specific as a monocyte/macrophage chemoattractant, dermal injection of LPS induces recruitment of a broader range of leukocytes, including T- and B-cells and neutrophils. Specific antibodies to rat B-cells (MCA 1432 from Serotec) were used at 10 µg/ml overnight at 4°C to determine whether CRD-Leu4Ile11Cys13 peptide 3(3-12)[MCP-1] affected the recruitment of this leukocyte subpopulation. Secondary antibody was anti-mouse FITC (415-096-100 from Jackson ImmunoResearch, as above).
# (10 mg in 200 µl subcutaneous). Thirty minutes later, PBS, 50 ng LPS and 500 ng MCP-1 were injected into three separate sites on the ventral abdomen of each rat. Animals were sacrificed 24 hours later and the intradermal site was excised, and frozen in OCT embedding media. Five µm sections were collected from each rat intradermal site and stored at -20°C. The number of monocytes (anti-rat CD14, Serotec), T cells, neutrophils (anti-rat granulocytes, Harlan Seralab), B-lymphocytes (anti-rat B cells, Serotec), and MCP-1, IL-8, and TNF-α (anti-mouse TNF-α, R and D Systems) were measured. Eight test sections and two control sections were stained at each site for each animal through a distance of 2.5 mm. The median percentage area was determined for each animal and for each group using NIH image, as the largest variability of staining was between sections rather than in any one section.
# [4] = test system: T cell-dependent and T cell-independent antibody response; test: Antibody response after immunization with sheep red blood cells; set-up: species or system mice; settings: mouse, in vivo
compound,measurement,setting,value
CC[C@@H](C)[C@H]1NC(=O)[C@@H](CCC(N)=O)NC(=O)[C@H](N)CSSC[C@H](C(N)=O)NC(=O)[C@@H](CC(C)C)NC(=O)[C@@H](CC(=O)O)NC(=O)[C@H]2CCCN2C(=O)[C@@H](CCCCN)NC(=O)[C@@H](CCC(N)=O)NC(=O)[C@@H](CCCCN)NC(=O)[C@@H](Cc2c[nH]c3ccccc23)NC1=O (H-[dC][dQ][dI][dW][dK][dQ][dK][dP][dD][dL][dC]-NH2; disulfide 1-11),displacement of MCP-1 from heparin-coated agarose beads (in words),[1],did not result in displacement
same,time until serum concentrations decline below LLOQ (in words),[2],within four hours
same,"TNF-α, IL-8 and MCP-1 at the LPS intradermal site (in words)","[3]; 10 mg subcutaneous, 50 ng LPS",substantially reduced
same,"median percentage area stained for neutrophils, monocytes, CD4+ T lymphocytes and B-lymphocytes at the LPS site (in words)","[3]; 10 mg subcutaneous, 50 ng LPS",abolished
same,recruitment of B-cells to the site of the LPS injection (in words),"[3]; rat, in vivo",substantially inhibited
same,reduction in the number of monocyte/macrophages recruited in response to injected bacterial LPS,"[3]; rat, in vivo",> 80%
same,MCP-1 induced recruitment of monocyte/macrophages in skin (in words),[3],completely abolished
same,MCP-1 induced recruitment of monocyte/macrophages in skin (in words),[3]; listed as CRD-Leu4Ile11Cys13peptide 3(3-12),the inflammatory response is abolished
same,T cell-dependent antibody response (in words),[4],prevented
